Assay results published in patent US9255272B2, “Use of inhibitors of leukotriene B4 receptor BLT2 for treating asthma” (Korea University Research & Business Foundation, priority 2007, dated 2016).

Key:
[1] = tested on: ROS; assay: ROS levels in BAL fluid cells (DCF fluorescence, FACS); type: in vivo, mouse; settings: 1.6 mg/kg i.v. 24 hr and 1 hr before 10% OVA; BAL fluid 48 h after challenge
Experimental: (§1) Female BALB/c mice and C57BL/6 mice (7 weeks old; 18-20 g) were obtained from Orientbion Inc. (Seoungnam, Korea). Sensitization and challenge were carried out as described previously with some modification (28). Briefly, female C57BL/6 mice (7 weeks old; 18-20 g) were immunized by intraperitoneal (i.p.) injection of 200 μg ovalbumin (OVA) emulsified in 2.5 mg of adjuvant aluminum hydroperoxide gel (alum) (Pierce, Rockford, Ill.). A second i.p. injection of 20 μg OVA adsorbed onto alum (2.5 mg) was administered 10 days later. After an additional 10 days, mice were exposed to an aerosol of 1% OVA in saline for 30 min daily on 3 consecutive days. On day 25, mice were finally challenged by provocation with 10% OVA aerosol. For inhibition experiments, sense or antisense BLT2 (1.6 mg/kg) was injected intravenously 24 h and then 1 h before the 10% OVA challenge. The mice were then killed on day 27 to assess asthmatic phenotypes. Antisense BLT2 oligonucleotide (5′-[…]-3′ (SEQ ID NO: 15)), sense BLT2 oligonucleotide (5′-[…]-3′ (SEQ ID NO: 16)).
ROS levels in BAL fluids were measured as a function of DCF fluorescence as described previously (30). […] DCF fluorescence was excited at 488 nm and the evoked emission was filtered with a 515-nm long-pass filter. […]

[2] = tested on: BLT1 mRNA; assay: BLT1 mRNA level in lung of OVA-challenged mice (semiquantitative RT-PCR); type: in vivo, mouse; settings: C57BL/6 mice, 1.6 mg/kg i.v. 24 hr and 1 hr before 10% OVA challenge
Experimental: as §1
Total RNA was extracted from lung samples using Easy-blue RNA extraction reagent (Intron, Korea). […] For the semiquantitative analysis of transcripts, the optimal PCR conditions were first determined by linear amplification of glyceraldehyde-3-phosphate dehydrogenase (GAPDH). […]

In the case of “antisense BLT2: Antisense BLT2 oligonucleotide 5′-GCTCAGTAGTGTCTCATTCC-3′ (SEQ ID NO: 15) (listed as DNA, chemistry not fully specified)”, the “reduction of ROS levels in BAL fluid” value [1] is reported as −70% and the “BLT1 expression in the lung (mRNA)” value [2] is reported as “without interfering”.
